Literature values as cited in patent publication US20160347856A1, “Use of Anti-MUC1 Maytansinoid Immunoconjugate Antibody for the Treatment of Solid Tumors” (SANOFI, priority 2013, published 2016).

Legend:
[1] = poor therapeutic effects because of high systemic toxicity; Foster et al. (1996), Wolff et al. (1996)
[2] = Bhuyan et al. (1982)
mice = settings: single intravenous dose of 12.5 μg/kg; Reynolds et al. (1986)

Row | SMILES | Clinical evaluation [1] | Potency in vitro relative to doxorubicin, methotrexate and vincristine [2] | Toxicity after administration to mice (mice)
1 | CCN(CC)c1ccc2cc(C(=O)Nc3ccc4[nH]c(C(=O)N5C[C@@H](CCl)c6c5cc(OC(=O)Nc5ccccc5)c5[nH]cc(C)c65)cc4c3)oc2c1 [Carzelesin] | disappointing results | – | –
2 | Cc1c[nH]c2c1[C@@]13C[C@@H]1CN(C(=O)c1cc4cc(NC(=O)c5cc6ccccc6o5)ccc4[nH]1)C3=CC2=O [Adozelesin] | disappointing results | – | –
3 | COc1c(O)c2c(c3cc(C(=O)N4CCc5c4c(O)c(OC)c4[nH]c(C(=O)N6CC7CC78C6=CC(=O)c6[nH]cc(C)c68)cc54)[nH]c13)CCN2C(N)=O (stereo not shown) [CC-1065] | – | about 1000 fold | delayed hepatotoxicity leading to mortality on day 50
